How the values were obtained:
VM-M3 tumour = assay: VM-M3 orthotopic GBM model: bioluminescence imaging and survival; type: in vivo, mouse (VM/Dk)
Description: FIGS. 1A-1F. Restricted Ketogenic diet with DON reduces progression and mortality of the VM-M3 GBM. VM/Dk inbred mice were implanted orthotopically with a small (1.0 mm×1.0 mm) tissue fragment from the VM-M3 tumour on day 0. The implanted mice were divided into two groups on day 4 and were fed either; a standard chow diet unrestricted or ad-libitum (SD-UR), or a ketogenic diet (KD-R) in restricted amounts to reduce body weight by about 15%. DON (0.1-1.0 mg/kg) was injected i.p. 7 days following orthotopic tumour implantation. […] 1A. All mice were imaged in-vivo and terminated on day 14 or 15 when all control mice appeared moribund (experiments 1 & 2). For experiment 1, bioluminescence was scored from 0-4, following the administration of lower doses of DON (0.1 and 0.5 mg/kg). Values are expressed as the mean+/−SEM and a one-way analysis of variance followed by Tukey's post hoc test was performed to determine the significance between groups, FIG. 1B. In experiment 2, in-vivo bioluminescent photon values were obtained following the administration of DON (1.0 mg/kg) in mice under the KD-R, FIG. 1C. The average in-vivo bioluminescent photon values were calculated for the KD-R (n=4) and KD-R+DON (n=8) mice in experiment 2. Values are presented as the mean+/−SEM and the P value was calculated using a two-tailed student's t-test, FIG. 1D. in-vivo bioluminescent images of 3 representative mice from both study groups in experiment 2 are shown, FIG. 1E. For experiment 3, a survival study was performed, and a Kaplan Meier survival plot was configured for SD-UR (n=15), SD-UR+DON (n=10), KD-R (n=10), and KD-R+DON (n=10), FIG. 1F.
FIGS. 2A-2C. Restricted Ketogenic diet with DON reduces VM-M3 GBM bioluminescence. VM/Dk mice were implanted with a VM-M3 tumour as described in the previous figures. Mouse brains were imaged ex-vivo on day 14 or 15. Mice were imaged ex-vivo after in-vivo bioluminescent imaging, as described in the previous figures. Individual ex-vivo bioluminescent photon values were measured following the administration of DON (1.0 mg/kg) in KD-R mice, FIG. 2A. From the individual measurements, the average ex-vivo bioluminescent photon value was calculated for both the KD-R (n=6) and KD-R+DON (n=8) mouse groups. Values are presented as the mean+/−SEM and significance of differences was determined following a two-tailed student's t-test, FIG. 2B. ex-vivo bioluminescent images of brains from representative mice in experiment 2 are shown in comparison to SD-UR, FIG. 2C.
To observe the effect of the KD-R and DON on the VM-M3 tumour model, three consecutive experiments were conducted. Experiment 1 included four groups (SD-UR; SD-UR+DON; KDR; KDR+DON) with lower DON dosages (0.1 and 0.5 mg/kg). Experiment 2 involved both in-vivo and ex-vivo imaging of two study groups (KD-R and KD-R+DON) following the administration of a higher dose of DON (1.0 mg/kg). Experiment 3, a survival study, also used the higher DON dose (1.0 mg/kg) and included the four groups from Experiment 1 (SD-UR; SD-UR+DON; KDR; KDR+DON) ( ).
The KD-R+DON treatment was performed as outlined in the study timeline (FIG. 1A). In experiment 1, two doses of DON (0.1 and 0.5 mg/kg) were used in both the SD-UR and KD-R groups (FIG. 1B). d-luciferin was injected i.p. 15 days after tumour implantation, and in-vivo bioluminescence imaging was performed. The total VM-M3 tumour bioluminescence photon values were scored from 0 to 4, with 0 being the baseline value and 4 being the highest value.
Experiment 2 involved a larger number of mice that were treated with a higher dose of DON (1.0 mg/kg). Due to the observed synergy between the KD-R and DON in experiment 1, only the KD-R group was selected for further experiments. All mice in this experiment expressed a significant amount of tumour burden as observed by in-vivo imaging on day 7 (data not shown). […] All untreated SD-UR control mice died between day 15 and 18. […]

[1] = shown previously (ref 33); cited from earlier work
[2] = Toxicity and body weight observations in DON treated mice; type: in vivo, mouse
Description: FIG. 11. Body weights of VM-M3 tumour bearing mice. VM-M3/Fluc tumour fragments were implanted as described in FIGS. 1A-1F. Body weight was determined every alternate day. Initial and final body weight data are presented. Mice fed the SD-UR began to drop body weight on the day of termination due to tumour burden. Mice fed the KD-R maintained a 15-18% body weight reduction throughout the experiment due to reduced caloric intake. Initial and final body weights were similar in the SD-UR and the SD-UR+DON mice (n=15 mice/group). Final body weights were lower than initial body weights in the KD-R and the KD-R+DON mice (n=15 mice/each group). Values are expressed as the mean+/−SEM and a two tailed student's t-test was performed between the initial and final values of each group (*=p<0.01).
It is proposed that issues with DON toxicity arise when there is an appreciable competition for glutamine between host and tumour. There is also increasing evidence supporting the protective role of glutamine supplementation for cancer patients^46. Since tumour consumption of glutamine is dissipative, glutamine supplementation might not increase tumour growth^46. However, additional preclinical studies are needed to determine if glutamine supplementation could be used together with DON. The present disclosure provides that strategies for managing toxicity of a therapeutically effective drug would be as important as developing a new drug.
The following studies were to determine if the simultaneous targeting of glucose and glutamine, while under therapeutic ketosis, could manage late stage growth and enhance survival without toxicity in two different syngeneic mouse models of GBM. DON was administered 7 days after tumour implantation, which is considered late for the VM-M3/Fluc tumour, as neurological signs and symptoms first appear at 10 to 12 days post implantation with morbidity occurring in 100% of the tumour-bearing mice by 14-18 days^2. Additional results were obtained in C57BL/6J inbred mice bearing the syngeneic CT-2A high-grade stem cell glioma^32. […]

VM-M3 tumour cells = assay: VM-M3 brain tumour histology (H&E) and Ki-67 staining; type: in vivo, mouse (VM/Dk); conditions: compared with SD-UR brains
Description: VM/Dk mice were implanted with VM-M3 cells orthotopically in the brain on day 0 as described in the previous figures. The brains were fixed in formalin for histology, processed, and stained as described in Methods. Histological analysis (H&E) was used to validate the presence of tumour cells, FIG. 3A. […] DAPI is used for the Ki-67 negative nuclear stain.
Brain tumour samples were fixed in 10% neutral buffered formalin (Sigma) and embedded in paraffin. The brain tumour samples were sectioned at 5 μm, were stained with haematoxylin and eosin (H&E) at the Harvard University Rodent Histopathology Core Facility (Boston, Mass.), and were examined by light microscopy using either a Zeiss Axioplan 2 or Nikon SMZ1500 light microscope. Images were acquired using SPOT Imaging Solutions (Diagnostic Instruments, Inc.) cameras and software. All histological sections were evaluated at the Harvard University Rodent Histopathology Core Facility.
For immunohistochemistry, the tissue sections from untreated and treated tumour bearing mice were deparaffinized, rehydrated, and washed. The tissue sections were then heat treated (95° C.) in antigen unmasking solution (Vector Laboratories, Burlingame, Calif.) for 30 min. […] Nuclei were stained using NucBlue (Invitrogen). Images were captured by the EVOS FL Cell Imaging System fluorescent microscope. […]

For `[N-]=[N+]=CC(=O)CC[C@H](N)C(=O)O` [DON, 6-diazo-5-oxo-L-norleucine], the “reduction in tumour growth” value (VM-M3 tumour; DON 0.5 mg/kg once or twice per week, bioluminescent imaging) was 60 to 70%, the “resolution of the brain tumour” value (VM-M3 tumour; DON 1.0 mg/kg, same schedule, bioluminescent imaging) was “near complete resolution” and the “lower photon value compared to control SD-UR group” value (VM-M3 tumour; experiment 1, DON 0.1 and 0.5 mg/kg, in-vivo bioluminescence day 15) was 44%. The “average ex-vivo photon value” (VM-M3 tumour; experiment 2, DON 1.0 mg/kg, FIG. 2B) was “significant reduction”, the “mice with baseline value of in-vivo bioluminescence” value (VM-M3 tumour; experiment 2, KD-R fed mice, DON 1.0 mg/kg, day 14 or 15) was 7 out of the 8 and the “individual ex-vivo bioluminescent values” (VM-M3 tumour; experiment 2, KD-R fed mice, DON 1.0 mg/kg, resected brains) was “below the baseline value”. The “average in-vivo photon value” (VM-M3 tumour; experiment 2, KD-R fed mice, DON 1.0 mg/kg, versus KD-R) was “significant reduction”, the “toxic effects in C57BL/6J mice” value [1] was “no toxic effects” and the “toxic effects in non-tumour-bearing VM/Dk mice” value ([2]; DON at the concentrations used in this study) was “no toxic effects”. For the same compound, the “initial versus final body weight” value ([2]; VM-M3 tumour bearing mice, n=15 mice/group) was “similar”, the “toxicity in DON treated tumour-bearing mice” value ([2]; until end of study, when mild muscle loss was observed in some mice) was “No noticeable toxicity” and the “histology (H&E) of primary tumour” value (VM-M3 tumour cells) was “significant area of dead cells”.

Source: patent US20200316096A1, “COMBINATION OF DIET AND DRUG THERAPY FOR TREATING CANCER” (Trustees of Boston College, priority 2019, published 2020)
